Laboratory results reported in the NIST ThermoML archive (doi:10.1016/j.jct.2007.11.008).
Numbers after ± are expanded uncertainties.

Experiment: molar enthalpy of vaporization or sublimation
Settings: 298 K; Crystal; Static calorimetry

molar enthalpy | SMILES
48.57 ± 0.263 kcal/mol | CC(C)CN(CC(C)C)C(=S)NC(=O)c1cccs1
48.92 ± 0.263 kcal/mol | CCCCN(CCCC)C(=S)NC(=O)c1cccs1 [N-((dibutylamino)thioxomethyl)-2-thiophenecarboxamide]
